Experimental data: patent EP0531958A1, “6-Aminoquinolones, their synthesis and their use as antibacterial agents” (MEDIOLANUM FARMACEUTICI S.P.A., priority 1991, dated 1993)
Values after ≈ are worked out from the molar mass of the structure shown. Like-named read-outs stand apart in the source and are kept apart here.

Experiments:
Format in all cases: cell-based
Gram + = assay: MIC test, average over the 5 gram-positive test germs; settings: 24 h
Experimental: (§1) As to the antibacterial activity, there was determined the Least (Minimum) Inhibiting Concentration (MIC), by working according to the following operative conditions.
(§2) There were used suspensions of test germs (5 gram-positive and 15 gram-negative) having a known titre, kept freezed at -80°C and diluted, at the time of use, in peptonized water up to a concentration of 1-2.10⁷ cfu/ml.
(§3) A few mg of the products, according to the invention were weighed sufficient for preparing parent solutions in DMSO + NaOH (1N) containing 2560 µg/ml (64µg/ml/dish). From the thus prepared parent solutions there were prepared 12 serial dilutions (1:2) down to the concentration of 1.25 µg/ml.
(§4) 0.5 ml of the different dilutions of each product were distributed on dishes containing 19.5 ml of agarized medium (TSA), maintained in a fluid state at the temperature of 50°C. After slight stirring, the dishes were made to solidify and dry under hood (laminar flow).
(§5) The MIC tests (Least or "Minimum" Inhibiting Concentration) were performed by using a Steers multiwell inoculator having 36 wells, each containing 200 µl of bacterial suspension.
(§6) After inoculation, the dishes were placed into a thermostat and checked after 24 h of incubation at 35°C.
(§7) The MIC is defined as the lowermost product concentration (µg/ml) inhibiting the visible growth of the microorganisms.

[1] = test system: Acinebacter calcoloaceticus OSMPV 1130; assay: MIC test, agar dilution with Steers multiwell inoculator; settings: TSA dishes, 24 h at 35°C, read-out: Minimum Inhibiting Concentration
Experimental: as §1, §2, §3, §4, §5, §6, §7

[2] = test system: Enterobacter cloacae OMNF 1153; assay: as above; settings: OMNF1153, TSA dishes, 24 h at 35°C, read-out: Minimum Inhibiting Concentration
Experimental: as §1, §2, §3, §4, §5, §6, §7

[3] = test system: Enterobacter cloacae OMNF 1174; assay: as above; settings: OMNF1174, TSA dishes, 24 h at 35°C, read-out: Minimum Inhibiting Concentration
Experimental: as §1, §2, §3, §4, §5, §6, §7

Escherichia coli 120 = assay: as above; settings: TSA dishes, 24 h at 35°C, read-out: Minimum Inhibiting Concentration
Experimental: as §1, §2, §3, §4, §5, §6, §7

[4] = test system: Escherichia coli ATCC 8739; assay: as above; settings: ATCC8739, TSA dishes, 24 h at 35°C, read-out: Minimum Inhibiting Concentration
Experimental: as §1, §2, §3, §4, §5, §6, §7

Escherichia coli CNUR 1 = assay: as above; settings: CNUR1, TSA dishes, 24 h at 35°C, read-out: Minimum Inhibiting Concentration
Experimental: as §1, §2, §3, §4, §5, §6, §7

Escherichia coli CNUR 8 = assay: as above; settings: CNUR8, TSA dishes, 24 h at 35°C, read-out: Minimum Inhibiting Concentration
Experimental: as §1, §2, §3, §4, §5, §6, §7

Escherichia coli ISF 432 = assay: as above; settings: ISF432, TSA dishes, 24 h at 35°C, read-out: Minimum Inhibiting Concentration
Experimental: as §1, §2, §3, §4, §5, §6, §7

[5] = test system: Klebsiella pneumoniae ATCC 10031; assay: as above; settings: ATCC10031, TSA dishes, 24 h at 35°C, read-out: Minimum Inhibiting Concentration
Experimental: as §1, §2, §3, §4, §5, §6, §7

Proteus vulgaris CNUR 6 = assay: as above; settings: CNUR6, TSA dishes, 24 h at 35°C, read-out: Minimum Inhibiting Concentration
Experimental: as §1, §2, §3, §4, §5, §6, §7

[6] = test system: Providencia stuardii CNUR 5; assay: as above; settings: CNUR5, TSA dishes, 24 h at 35°C, read-out: Minimum Inhibiting Concentration
Experimental: as §1, §2, §3, §4, §5, §6, §7

[7] = test system: Pseudomonas aeruginosa ATCC 9027; assay: as above; settings: ATCC9027, TSA dishes, 24 h at 35°C, read-out: Minimum Inhibiting Concentration
Experimental: as §1, §2, §3, §4, §5, §6, §7

[8] = test system: Pseudomonas aeruginosa CNUR 2; assay: as above; settings: CNUR2, TSA dishes, 24 h at 35°C, read-out: Minimum Inhibiting Concentration
Experimental: as §1, §2, §3, §4, §5, §6, §7

[9] = test system: Pseudomonas aeruginosa CNUR 4; assay: as above; settings: CNUR4, TSA dishes, 24 h at 35°C, read-out: Minimum Inhibiting Concentration
Experimental: as §1, §2, §3, §4, §5, §6, §7

Shighella enteritidis = assay: as above; settings: TSA dishes, 24 h at 35°C, read-out: Minimum Inhibiting Concentration
Experimental: as §1, §2, §3, §4, §5, §6, §7

[10] = test system: Staphylococcus aureus ATCC 6538; assay: as above; settings: ATCC6538, TSA dishes, 24 h at 35°C, read-out: Minimum Inhibiting Concentration
Experimental: as §1, §2, §3, §4, §5, §6, §7

[11] = test system: Staphylococcus aureus MPR 5; assay: as above; settings: MPR5, TSA dishes, 24 h at 35°C, read-out: Minimum Inhibiting Concentration
Experimental: as §1, §2, §3, §4, §5, §6, §7

[12] = test system: Staphylococcus epidermidis CPHL A2; assay: as above; settings: CPHLA2, TSA dishes, 24 h at 35°C, read-out: Minimum Inhibiting Concentration
Experimental: as §1, §2, §3, §4, §5, §6, §7

[13] = test system: Staphylococcus epidermidis HCF Berset C.; assay: as above; settings: TSA dishes, 24 h at 35°C, read-out: Minimum Inhibiting Concentration
Experimental: as §1, §2, §3, §4, §5, §6, §7

[14] = test system: Streptococcus facealis LEP Br.; assay: as above; settings: TSA dishes, 24 h at 35°C, read-out: Minimum Inhibiting Concentration
Experimental: as §1, §2, §3, §4, §5, §6, §7

Gram - = assay: MIC test, average over the 15 gram-negative test germs; settings: 24 h
Experimental: as §1, §2, §3, §4, §5, §6, §7

[15] = geometrical average of the MIC over the 15 Gram - strains, read-out: Geometrical Average
[16] = mean log of the MIC over the 15 Gram - strains, read-out: Log (converted)
[17] = geometrical average of the MIC over the 5 Gram + strains, read-out: Geometrical Average

| Structure (SMILES) | MIC (Gram +; read-out: Log (converted)) [µg/mL] | MIC [1] [µg/mL] | MIC [2] [µg/mL] | MIC [3] [µg/mL] | MIC (Escherichia coli 120) [µg/mL] | MIC [4] [µg/mL] | MIC (Escherichia coli CNUR 1) [µg/mL] | MIC (Escherichia coli CNUR 8) [µg/mL] | MIC (Escherichia coli ISF 432) [µg/mL] | MIC [5] [µg/mL] | MIC (Proteus vulgaris CNUR 6) [µg/mL] | MIC [6] [µg/mL] | MIC [7] [µg/mL] | MIC [8] [µg/mL] | MIC [9] [µg/mL] | MIC (Shighella enteritidis) [µg/mL] | MIC [10] [µg/mL] | MIC [11] [µg/mL] | MIC [12] [µg/mL] | MIC [13] [µg/mL] | other results |
| --- | --- | --- | --- | --- | --- | --- | --- | --- | --- | --- | --- | --- | --- | --- | --- | --- | --- | --- | --- | --- | --- |
| CN1CCN(c2cc3c(cc2N)c(=O)c(C(=O)O)cn3C2CC2)CC1 [Compound 8] | 4 (≈ 11.7 µM) | 4 (≈ 11.7 µM) | 0.25 (≈ 0.73 µM) | 0.25 (≈ 0.73 µM) | 0.12 (≈ 0.35 µM) | 0.25 (≈ 0.73 µM) | 0.25 (≈ 0.73 µM) | 0.12 (≈ 0.35 µM) | 0.03 (≈ 0.0876 µM) | 0.03 (≈ 0.0876 µM) | 64 (≈ 187 µM) | 8 (≈ 23.4 µM) | 4 (≈ 11.7 µM) | 16 (≈ 46.7 µM) | 64 (≈ 187 µM) | 0.25 (≈ 0.73 µM) | 2 (≈ 5.84 µM) | 2 (≈ 5.84 µM) | 2 (≈ 5.84 µM) | 4 (≈ 11.7 µM) | MIC [14]: 32 µg/mL (≈ 93.5 µM); MIC (Gram -; [15]): 0.861 µg/mL (≈ 2.51 µM); MIC (Gram -; [16]): 0.861 µg/mL (≈ 2.51 µM) |
| CN1CCN(c2nc3c(c(N)c2N)c(=O)c(C(=O)O)cn3C2CC2)CC1 [Compound 42] | 4 (≈ 11.2 µM) | 4 (≈ 11.2 µM) | 1 (≈ 2.79 µM) | 1 (≈ 2.79 µM) | 0.25 (≈ 0.698 µM) | 0.06 (≈ 0.167 µM) | 1 (≈ 2.79 µM) | 0.25 (≈ 0.698 µM) | 0.06 (≈ 0.167 µM) | 0.06 (≈ 0.167 µM) | 64 (≈ 179 µM) | 4 (≈ 11.2 µM) | 8 (≈ 22.3 µM) | 16 (≈ 44.6 µM) | 128 (≈ 357 µM) | 0.5 (≈ 1.4 µM) | 2 (≈ 5.58 µM) | 2 (≈ 5.58 µM) | 4 (≈ 11.2 µM) | 4 (≈ 11.2 µM) | MIC [14]: 16 µg/mL (≈ 44.6 µM); MIC (Gram -; [15]): 1.37 µg/mL (≈ 3.83 µM); MIC (Gram -; [16]): 1.37 µg/mL (≈ 3.82 µM) |
| Cc1c(N2CCNCC2)c(N)cc2c(=O)c(C(=O)O)cn(C3CC3)c12 [Compound 34] | 2 (≈ 5.84 µM) | 4 (≈ 11.7 µM) | 0.25 (≈ 0.73 µM) | 0.12 (≈ 0.35 µM) | 0.12 (≈ 0.35 µM) | 0.12 (≈ 0.35 µM) | 0.12 (≈ 0.35 µM) | 0.06 (≈ 0.175 µM) | 0.06 (≈ 0.175 µM) | 0.06 (≈ 0.175 µM) | 8 (≈ 23.4 µM) | 2 (≈ 5.84 µM) | 4 (≈ 11.7 µM) | 16 (≈ 46.7 µM) | 16 (≈ 46.7 µM) | 0.06 (≈ 0.175 µM) | 1 (≈ 2.92 µM) | 2 (≈ 5.84 µM) | 1 (≈ 2.92 µM) | 2 (≈ 5.84 µM) | MIC (Gram +; [17]): 2 µg/mL; MIC [14]: 8 µg/mL (≈ 23.4 µM); MIC (Gram -; [15]): 0.51 µg/mL (≈ 1.49 µM); MIC (Gram -; [16]): 0.513 µg/mL (≈ 1.5 µM) |
| CC(C)(C)n1cc(C(=O)O)c(=O)c2cc(N)c(N3CCc4ccccc4C3)cc21 [Compound 47, 6-amino-1-terbutyl-7-[2-(1,2,3,4-tetrahydroisoquinolinyl)]-1,4-dihydro-4-oxo-quinoline carboxylic acid] | 0.871 (≈ 2.22 µM) | 2 (≈ 5.11 µM) | 16 (≈ 40.9 µM) | 8 (≈ 20.4 µM) | 2 (≈ 5.11 µM) | 0.12 (≈ 0.307 µM) | 8 (≈ 20.4 µM) | 2 (≈ 5.11 µM) | 0.12 (≈ 0.307 µM) | 0.12 (≈ 0.307 µM) | 128 (≈ 327 µM) | 4 (≈ 10.2 µM) | 32 (≈ 81.7 µM) | 64 (≈ 163 µM) | 128 (≈ 327 µM) | 8 (≈ 20.4 µM) | 0.25 (≈ 0.639 µM) | 0.5 (≈ 1.28 µM) | 0.5 (≈ 1.28 µM) | 1 (≈ 2.55 µM) | MIC (Gram +; [17]): 0.871 µg/mL; MIC [14]: 8 µg/mL (≈ 20.4 µM); MIC (Gram -; [15]): 4.77 µg/mL (≈ 12.2 µM); MIC (Gram -; [16]): 4.78 µg/mL (≈ 12.2 µM) |
